Data as given in patent publication US7411083B2, “Substituted acetic acid derivatives” (Wyeth, priority 2003, dated 2008).

These molecules were tested against T1, recombinant human plasminogen activator inhibitor-1 (PAI-1) (Homo sapiens, UniProt P05121) (assay: Screening for PAI-1 inhibition (residual tPA activity, Spectrozyme-tPA chromogenic substrate)). Settings: test compound at 100 Um; pH 6.6 buffer, 140 nM PAI-1, 70 nM tPA.
T1 construct: purchased Molecular Innovations, Royal Oak, Mich
Format: biochemical
Protocol: Screening for PAI-1 inhibition. Test compounds are dissolved in DMSO at a final concentration of 10 Mm, then diluted 100× in physiologic buffer. The inhibitory assay is initiated by the addition of the test compound (1-100 μM final concentration, maximum DMSO concentration of 0.2%) in a Ph 6.6 buffer containing 140 Nm recombinant human plasminogen activator inhibitor-1 (PAI-1; Molecular Innovations, Royal Oak, Mich.). Following a 1 hour incubation at room temperature, 70 Nm of recombinant human tissue plasminogen activator (Tpa) is added, and the combination of the test compound, PAI-1 and Tpa is incubated for an additional 30 minutes. Following the second incubation, Spectrozyme-Tpa (American Diagnostica, Greenwich, Conn.), a chromogenic substrate for Tpa, is added and absorbance read at 405 nm at 0 and 60 minutes. Relative PAI-1 inhibition is equal to the residual Tpa activity in the presence of the test compounds and PAI-1. Control treatments include the complete inhibition of Tpa by PAI-1 at the molar ratio employed (2:1), and the absence of any effect of the test compound on Tpa alone.

T1 sequence (P05121 24-402): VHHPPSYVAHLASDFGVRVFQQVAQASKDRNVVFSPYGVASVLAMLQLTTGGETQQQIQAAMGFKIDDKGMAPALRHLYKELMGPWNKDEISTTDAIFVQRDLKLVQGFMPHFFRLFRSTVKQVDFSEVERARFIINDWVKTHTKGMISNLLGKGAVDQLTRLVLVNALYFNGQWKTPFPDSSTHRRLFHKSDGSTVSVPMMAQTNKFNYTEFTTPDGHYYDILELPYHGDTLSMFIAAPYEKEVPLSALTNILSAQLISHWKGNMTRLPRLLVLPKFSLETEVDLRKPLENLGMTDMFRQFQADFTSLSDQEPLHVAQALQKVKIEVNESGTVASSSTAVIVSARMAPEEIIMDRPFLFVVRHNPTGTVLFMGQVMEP

| SMILES | inhibition at 100 µM |
| --- | --- |
| O=C(O)CO/N=C/c1cccc(-c2ccc(OCc3ccc(C(F)(F)F)cc3)cc2)c1 [Compound 73, ({[(1E)-(4′-{[4-(trifluoromethyl)benzyl]oxy}-1,1′-biphenyl-3-yl)methylidene]amino}oxy)acetic acid] | 59% |
| CC(C)(C)c1ccc(COc2ccc(-c3cccc(/C=N/OCC(=O)O)c3)cc2)cc1 [Compound 74, {[((1E)-{4′-[(4-tert-butylbenzyl)oxy]-1,1′-biphenyl-3-yl}methylidene)amino]oxy}acetic acid] | 34% |
| O=C(O)CO/N=C/c1cccc(-c2ccc(OCc3ccc(Br)cc3)cc2)c1 [Compound 75, {[((1E)-{4′-[(4-bromobenzyl)oxy]-1,1′-biphenyl-3-yl}methylidene)amino]oxy}acetic acid] | 75% |
| O=C(O)CO/N=C/c1cccc(-c2ccc(OCc3cc(C(F)(F)F)cc(C(F)(F)F)c3)cc2)c1 [Compound 76, ({[(1E)-(4′-{[3,5-bis(trifluoromethyl)benzyl]oxy}-1,1′-biphenyl-3-yl)methylidene]amino}oxy)acetic acid] | 73% |
| O=C(O)CO/N=C/c1cccc(-c2ccc(OCc3cccc(Br)c3)cc2)c1 [Compound 77, {[((1E)-{4′-[(3-bromobenzyl)oxy]-1,1′-biphenyl-3-yl}methylidene)amino]oxy}acetic acid] | 85% |
| O=C(O)CO/N=C/c1cccc(-c2ccc(OCc3cccc(Cl)c3)cc2)c1 [Compound 78, {[((1E)-{4′-[(3-chlorobenzyl)oxy]-1,1′-biphenyl-3-yl}methylidene)amino]oxy}acetic acid] | 23% |
| O=C(O)CO/N=C/c1cccc(-c2ccc(OCc3ccccc3)cc2)c1 [Compound 79, [({(1E)-[4′-(benzyloxy)-1,1′-biphenyl-3-yl]methylidene}amino)oxy]acetic acid] | 53% |
| O=C(O)CO/N=C/c1cccc(-c2ccc(OCc3cccc(C(F)(F)F)c3)cc2)c1 [Compound 80, ({[(1E)-(4′-{[3-(trifluoromethyl)benzyl]oxy}-1,1′-biphenyl-3-yl)methylidene]amino}oxy)acetic acid] | 78% |
| O=C(O)CO/N=C/c1cccc(-c2ccc(OCc3ccc(Cl)cc3)cc2)c1 [Compound 81, {[((1E)-{4′-[(4-chlorobenzyl)oxy]-1,1′-biphenyl-3-yl}methylidene)amino]oxy}acetic acid] | 28% |
| O=C(O)CO/N=C/c1cccc(-c2ccc(OCc3ccccc3Cl)cc2)c1 [Compound 82, {[((1E)-{4′-[(2-chlorobenzyl)oxy]-1,1′-biphenyl-3-yl}methylidene)amino]oxy}acetic acid] | 89% |
| O=C(O)CO/N=C/c1cccc(-c2ccc(OCc3ccc(Cl)c(Cl)c3)cc2)c1 [Compound 83, {[((1E)-{4′-[(3,4-dichlorobenzyl)oxy]-1,1′-biphenyl-3-yl}methylidene)amino]oxy}acetic acid] | 57% |
| O=C(O)CO/N=C/c1cccc(-c2ccc(OCc3ccc4ccccc4c3)cc2)c1 [Compound 84, [({(1E)-[4′-(2-naphthylmethoxy)-1,1′-biphenyl-3-yl]methylidene}amino)oxy]acetic acid] | 30% |
| Cc1ccc(COc2ccc(-c3cccc(/C=N/OCC(=O)O)c3)cc2)cc1 [Compound 85, {[((1E)-{4′-[(4-methylbenzyl)oxy]-1,1′-biphenyl-3-yl}methylidene)amino]oxy}acetic acid] | 34% |

Other lines, results leading:

| inhibition at 100 µM | SMILES |
| --- | --- |
| 22% | Cc1cccc(COc2ccc(-c3cccc(/C=N/OCC(=O)O)c3)cc2)c1 [Compound 86, {[((1E)-{4′-[(3-methylbenzyl)oxy]-1,1′-biphenyl-3-yl}methylidene)amino]oxy}acetic acid] |
| 85% | O=C(O)CO/N=C/c1cccc(-c2ccc(OCc3c(Cl)cccc3Cl)cc2)c1 [Compound 87, {[((1E)-{4′-[(2,6-dichlorobenzyl)oxy]-1,1′-biphenyl-3-yl}methylidene)amino]oxy}acetic acid] |
| 34% | O=C(O)CO/N=C/c1ccc(-c2cccc(OCc3ccc(C(F)(F)F)cc3)c2)cc1 [Compound 88, ({[(1E)-(3′-{[4-(trifluoromethyl)benzyl]oxy}-1,1′-biphenyl-4-yl)methylidene]amino}oxy)acetic acid] |
| 57% | CC(C)(C)c1ccc(COc2cccc(-c3ccc(/C=N/OCC(=O)O)cc3)c2)cc1 [Compound 89, {[((1E)-{3′-[(4-tert-butylbenzyl)oxy]-1,1′-biphenyl-4-yl}methylidene)amino]oxy}acetic acid] |
| 30% | O=C(O)CO/N=C/c1ccc(-c2cccc(OCc3cc(C(F)(F)F)cc(C(F)(F)F)c3)c2)cc1 [Compound 90, ({[(1E)-(3′-{[3,5-bis(trifluoromethyl)benzyl]oxy}-1,1′-biphenyl-4-yl)methylidene]amino}oxy)acetic acid] |
| 77% | O=C(O)CO/N=C/c1ccc(-c2cccc(OCc3cccc(Br)c3)c2)cc1 [Compound 91, {[((1E)-{3′-[(3-bromobenzyl)oxy]-1,1′-biphenyl-4-yl}methylidene)amino]oxy}acetic acid] |
| 76% | O=C(O)CO/N=C/c1ccc(-c2cccc(OCc3cccc(Cl)c3)c2)cc1 [Compound 92, {[((1E)-{3′-[(3-chlorobenzyl)oxy]-1,1′-biphenyl-4-yl}methylidene)amino]oxy}acetic acid] |
| 85% | O=C(O)CO/N=C/c1ccc(-c2cccc(OCc3ccccc3)c2)cc1 [Compound 93, [({(1E)-[3′-(benzyloxy)-1,1′-biphenyl-4-yl]methylidene}amino)oxy]acetic acid] |
| 74% | O=C(O)CO/N=C/c1ccc(-c2cccc(OCc3cccc(C(F)(F)F)c3)c2)cc1 [Compound 94, ({[(1E)-(3′-{[3-(trifluoromethyl)benzyl]oxy}-1,1′-biphenyl-4-yl)methylidene]amino}oxy)acetic acid] |
| 27% | O=C(O)CO/N=C/c1ccc(-c2cccc(OCc3ccc(Cl)cc3)c2)cc1 [Compound 95, {[((1E)-{3′-[(4-chlorobenzyl)oxy]-1,1′-biphenyl-4-yl}methylidene)amino]oxy}acetic acid] |
| 61% | O=C(O)CO/N=C/c1ccc(-c2cccc(OCc3ccccc3Cl)c2)cc1 [Compound 96, {[((1E)-{3′-[(2-chlorobenzyl)oxy]-1,1′-biphenyl-4-yl}methylidene)amino]oxy}acetic acid] |
| 65% | O=C(O)CO/N=C/c1ccc(-c2cccc(OCc3ccc(Cl)c(Cl)c3)c2)cc1 [Compound 97, {[((1E)-{3′-[(3,4-dichlorobenzyl)oxy]-1,1′-biphenyl-4-yl}methylidene)amino]oxy}acetic acid] |
| 46% | O=C(O)CO/N=C/c1ccc(-c2cccc(OCc3ccc4ccccc4c3)c2)cc1 [Compound 98, [({(1E)-[3′-(2-naphthylmethoxy)-1,1′-biphenyl-4-yl]methylidene}amino)oxy]acetic acid] |
| 84% | Cc1ccc(COc2cccc(-c3ccc(/C=N/OCC(=O)O)cc3)c2)cc1 [Compound 99, {[((1E)-{3′-[(4-methylbenzyl)oxy]-1,1′-biphenyl-4-yl}methylidene)amino]oxy}acetic acid] |
| 63% | Cc1cccc(COc2cccc(-c3ccc(/C=N/OCC(=O)O)cc3)c2)c1 [Compound 100, {[((1E)-{3′-[(3-methylbenzyl)oxy]-1,1′-biphenyl-4-yl}methylidene)amino]oxy}acetic acid] |
